According to PubChem BioAssay AID1963866 (Molecular Pharmacology Branch, DTP, NCI, 2024):

System: PDC KRAS tumor spheroids with HUVEC/MSC, viability
Test: Anticancer human tumor 349418-098-R-PDC patient-derived lung adenocarcinoma cell line growth inhibition [KRAS2]
Conditions: for IC50: curve of first compound; for viability, T/C: stronger effect = lower value
How it was run: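 Combination screen of spheroid viability in tumor-cell co-cultures with endothelial (HUVEC) and mesenchymal stem cell stroma. Each agent was tested in half-log dilutions, topping at clinical Cmax or at 10 microM without a known Cmax.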

[1] = second compound 0.1 µM, first compound 0.01 µM
[2] = second compound 0.1 µM, first compound 0.0316 µM
[3] = second compound 0.1 µM, first compound 0.1 µM
[4] = second compound 0.316 µM, first compound 0.01 µM
[5] = second compound 0.316 µM, first compound 0.0316 µM
[6] = second compound 0.316 µM, first compound 0.1 µM
[7] = second compound 1 µM, first compound 0.01 µM
[8] = second compound 1 µM, first compound 0.0316 µM
[9] = second compound 1 µM, first compound 0.1 µM
[10] = second compound 3.16 µM, first compound 0.01 µM
[11] = second compound 3.16 µM, first compound 0.0316 µM
[12] = second compound 3.16 µM, first compound 0.1 µM
[13] = second compound 0.0316 µM, first compound 0.0316 µM
[14] = second compound 0.0316 µM, first compound 0.1 µM
[15] = second compound 0.0316 µM, first compound 0.316 µM
[16] = second compound 0.0316 µM, first compound 1 µM
[17] = second compound 0.0316 µM, first compound 3.16 µM
[18] = second compound 0.1 µM, first compound 0.316 µM
[19] = second compound 0.1 µM, first compound 1 µM
[20] = second compound 0.1 µM, first compound 3.16 µM
[21] = second compound 0.316 µM, first compound 0.316 µM
[22] = second compound 0.316 µM, first compound 1 µM
[23] = second compound 0.316 µM, first compound 3.16 µM
[24] = second compound 1 µM, first compound 0.316 µM
[25] = second compound 1 µM, first compound 1 µM
[26] = second compound 1 µM, first compound 3.16 µM
[27] = second compound 3.16 µM, first compound 0.316 µM
[28] = second compound 3.16 µM, first compound 1 µM
[29] = second compound 3.16 µM, first compound 3.16 µM
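Also: spheroids exposed to compounds for seven days before readout.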

CN(C)C/C=C/C(=O)Nc1cc2c(Nc3ccc(F)c(Cl)c3)ncnc2cc1O[C@H]1CCOC1 + CC1OCC2(CCN(c3cnc(Sc4ccnc(N)c4Cl)c(N)n3)CC2)C1N
IC50 (second compound 0.1 µM): > 100 nM | IC50 (second compound 0.316 µM): > 100 nM | IC50 (second compound 1 µM): > 100 nM | IC50 (second compound 3.16 µM): > 100 nM | IC50 (second compound 10 µM): > 100 nM | viability, T/C (second compound 0.1 µM, first compound 0.000316 µM): 84.1% | viability, T/C (second compound 0.1 µM, first compound 0.001 µM): 95.7% | viability, T/C (second compound 0.1 µM, first compound 0.00316 µM): 105% | viability, T/C [1]: 114% | viability, T/C [2]: 119% | viability, T/C [3]: 103% | viability, T/C (second compound 0.316 µM, first compound 0.000316 µM): 106% | viability, T/C (second compound 0.316 µM, first compound 0.001 µM): 105% | viability, T/C (second compound 0.316 µM, first compound 0.00316 µM): 109% | viability, T/C [4]: 110% | viability, T/C [5]: 117% | viability, T/C [6]: 115% | viability, T/C (second compound 1 µM, first compound 0.000316 µM): 92.3% | viability, T/C (second compound 1 µM, first compound 0.001 µM): 111% | viability, T/C (second compound 1 µM, first compound 0.00316 µM): 97.4% | viability, T/C [7]: 107% | viability, T/C [8]: 116% | viability, T/C [9]: 105% | viability, T/C (second compound 3.16 µM, first compound 0.000316 µM): 99.1% | viability, T/C (second compound 3.16 µM, first compound 0.001 µM): 107% | viability, T/C (second compound 3.16 µM, first compound 0.00316 µM): 105% | viability, T/C [10]: 102% | viability, T/C [11]: 96% | viability, T/C [12]: 88.1% | viability, T/C (second compound 10 µM, first compound 0.000316 µM): 99.2% | viability, T/C (second compound 10 µM, first compound 0.001 µM): 117% | viability, T/C (second compound 10 µM, first compound 0.00316 µM): 108% | viability, T/C (second compound 10 µM, first compound 0.01 µM): 110% | viability, T/C (second compound 10 µM, first compound 0.0316 µM): 104% | viability, T/C (second compound 10 µM, first compound 0.1 µM): 95.8%

CC1COCCN1c1cc(-c2ccnn2C)c2ccnc(-c3ccn[nH]3)c2n1 (stereo not given) + C=CC(=O)N1CCN(c2nc(OCC3CCCN3C)nc3c2CCN(c2cccc4cccc(C)c24)C3)CC1CC#N
IC50 (second compound 0.0316 µM): 29.8 nM | IC50 (second compound 0.1 µM): 31.1 nM | IC50 (second compound 0.316 µM): 23.8 nM | IC50 (second compound 1 µM): < 10 nM | IC50 (second compound 3.16 µM): < 10 nM | viability, T/C (second compound 0.0316 µM, first compound 0.01 µM): 94.1% | viability, T/C [13]: 47.6% | viability, T/C [14]: 9.45% | viability, T/C [15]: 5.83% | viability, T/C [16]: 4.78% | viability, T/C [17]: 4.54% | viability, T/C [1]: 112% | viability, T/C [2]: 49.1% | viability, T/C [3]: 9.48% | viability, T/C [18]: 5.64% | viability, T/C [19]: 4.53% | viability, T/C [20]: 3.65% | viability, T/C [4]: 102% | viability, T/C [5]: 33% | viability, T/C [6]: 5.66% | viability, T/C [21]: 4.96% | viability, T/C [22]: 4.7% | viability, T/C [23]: 4.39% | viability, T/C [7]: 43.6% | viability, T/C [8]: 4.15% | viability, T/C [9]: 3.41% | viability, T/C [24]: 4.26% | viability, T/C [25]: 3.79% | viability, T/C [26]: 3.79% | viability, T/C [10]: 0.1% | viability, T/C [11]: 0.21% | viability, T/C [12]: 0.07% | viability, T/C [27]: 0.06% | viability, T/C [28]: 0.07% | viability, T/C [29]: 0.12%

COc1cc2nccc(Oc3ccc(NC(=O)C4(C(=O)Nc5ccc(F)cc5)CC4)cc3)c2cc1OC + C=CC(=O)N1CCN(c2nc(OCC3CCCN3C)nc3c2CCN(c2cccc4cccc(C)c24)C3)CC1CC#N
IC50 (second compound 0.0316 µM): 1560 nM | IC50 (second compound 0.1 µM): 1570 nM | IC50 (second compound 0.316 µM): 1530 nM | IC50 (second compound 1 µM): 588 nM | IC50 (second compound 3.16 µM): < 31.6 nM | viability, T/C [13]: 96.3% | viability, T/C [14]: 96.9% | viability, T/C [15]: 92.2% | viability, T/C [16]: 72.5% | viability, T/C [17]: 10.1% | viability, T/C (second compound 0.0316 µM, first compound 10 µM): 19.4% | viability, T/C [2]: 88.5% | viability, T/C [3]: 95.8% | viability, T/C [18]: 93.7% | viability, T/C [19]: 74.6% | viability, T/C [20]: 7.5% | viability, T/C (second compound 0.1 µM, first compound 10 µM): 15.7% | viability, T/C [5]: 93.2% | viability, T/C [6]: 88.6% | viability, T/C [21]: 85.3% | viability, T/C [22]: 72.8% | viability, T/C [23]: 7.47% | viability, T/C (second compound 0.316 µM, first compound 10 µM): 15.3% | viability, T/C [8]: 73.5% | viability, T/C [9]: 79.7% | viability, T/C [24]: 68.4% | viability, T/C [25]: 33.7% | viability, T/C [26]: 1.78% | viability, T/C (second compound 1 µM, first compound 10 µM): 0.85% | viability, T/C [11]: 0.14% | viability, T/C [12]: 0.28% | viability, T/C [27]: 0.29% | viability, T/C [28]: 0.22% | viability, T/C [29]: 0.19% | viability, T/C (second compound 3.16 µM, first compound 10 µM): 0.14%
